In PubChem BioAssay (NCI):
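Growth conditions: 96-well plates. Treatment: test compound, 48 hours, 5 concentrations. Analysis: linear interpolation between bracketing concentrations; unreached endpoints set to highest concentration. GI50 = concentration required for 50% inhibition of growth. TGI: concentration producing complete growth inhibition.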 Where a SMILES comes first, the peptide text is derived from it. Bridges are numbered along the chain shown (N, C = ends). [ ]: non-standard residue; d: D form. ξ: configuration not given here. ξThr(3R) = C[C@@H](O)C(N)C(=O)O; S5 = C=CCCC[C@](C)(N)C(=O)O

How the values were obtained:
Experiment in all cases: NCI tumour cell line growth inhibition, 48 h
OVCAR-4 ovarian = tested on: OVCAR-4 ovarian
SF-539 CNS = tested on: SF-539 CNS
U251 CNS = tested on: U251 CNS
HCT-15 colon = tested on: HCT-15 colon
SR leukemia = tested on: SR leukemia
SK-OV-3 ovarian = tested on: SK-OV-3 ovarian
EKVX NSCLC = tested on: EKVX NSCLC
HOP-62 NSCLC = tested on: HOP-62 NSCLC
NCI-H226 lung = tested on: NCI-H226 lung
RPMI-8226 leukemia = tested on: RPMI-8226 leukemia

Structure (SMILES)	TGI (OVCAR-4 ovarian)	TGI (SF-539 CNS)	TGI (U251 CNS)	TGI (HCT-15 colon)	TGI (SR leukemia)	TGI (SK-OV-3 ovarian)	TGI (EKVX NSCLC)	GI50 (OVCAR-4 ovarian)	GI50 (HOP-62 NSCLC)	TGI (HOP-62 NSCLC)	GI50 (SF-539 CNS)	GI50 (U251 CNS)	GI50 (HCT-15 colon)	GI50 (SK-OV-3 ovarian)	GI50 (EKVX NSCLC)	GI50 (NCI-H226 lung)	TGI (NCI-H226 lung)	TGI (RPMI-8226 leukemia)	GI50 (RPMI-8226 leukemia)	GI50 (SR leukemia)
O=C(N/C(=C\c1ccccc1Cl)c1nc2ccccc2[nH]1)c1ccccc1	> 100 µM	> 100 µM	> 100 µM	> 100 µM	79.3 µM	> 100 µM	88 µM	–	–	–	–	–	–	–	–	–	–	–	–	–
Cc1ccc(-c2nc3cc(Cl)c(Cl)cc3nc2C#N)cc1	> 100 µM	> 100 µM	> 100 µM	> 100 µM	–	> 100 µM	> 100 µM	> 100 µM	> 100 µM	> 100 µM	> 100 µM	> 100 µM	> 100 µM	> 100 µM	> 100 µM	> 100 µM	> 100 µM	–	–	–
CN(NC1OC(CO)C(O)C(O)C1O)c1ccccc1 (stereo not drawn)	> 100 µM	–	> 100 µM	> 100 µM	> 100 µM	–	–	–	–	> 100 µM	–	–	–	–	–	–	> 100 µM	> 100 µM	–	–
CC(c1ccccc1)[C@@H](C(=O)Nc1ccc(I)cc1F)N1C(=O)N[C@H](c2ccc(OC[C@H](O)CO)cc2)C1=O (stereo partly drawn)	> 25 µM	> 25 µM	> 25 µM	> 25 µM	> 25 µM	> 25 µM	–	8.97 µM	17 µM	> 25 µM	15.5 µM	7.86 µM	11.4 µM	> 25 µM	–	14.5 µM	> 25 µM	> 25 µM	11.9 µM	> 20.5 µM
COc1ccc(S(=O)(=O)N[C@H](C(=O)O)c2ccccc2)cc1	> 100 µM	> 100 µM	> 100 µM	> 100 µM	–	> 100 µM	> 100 µM	–	–	> 100 µM	–	–	–	–	–	–	> 100 µM	> 100 µM	–	–
Cc1cc(=O)n(-c2c(C)cccc2Cl)c(/C=C(\O)c2ccncc2)n1	> 100 µM	> 100 µM	> 100 µM	> 100 µM	–	> 100 µM	> 100 µM	–	–	> 100 µM	–	–	–	–	–	–	> 100 µM	–	–	–
CC(=O)N[C@H](C(=O)N[C@@H](CCCNC(=N)N)C(=O)N[C@@H](CCCCN)C(=O)N[C@@H](CCCNC(=N)N)C(=O)NC(C(=O)N[C@@H](CC(C)C)C(=O)N[C@@H](CCCNC(=N)N)C(=O)N[C@@]1(C)CCC/C=C\CCC[C@@](C)(C(=O)N[C@@H](CCCNC(=N)N)C(=O)N[C@@H](CCC(=O)O)C(=O)N[C@@H](CC(C)C)C(=O)N[C@H](C(=O)N[C@@H](CCC(=O)O)C(N)=O)C(C)C)NC(=O)[C@H](CCC(N)=O)NC(=O)[C@H](CC(C)C)NC(=O)[C@H](CC(C)C)NC1=O)[C@@H](C)O)C(C)C (stereo partly drawn) (Ac-VRKR[ξThr(3R)]LR[S5]LLQ[S5]RELVE-NH2; staple (Z) 8-12)	20 µM	7.54 µM	10.4 µM	14.7 µM	–	14.9 µM	14.2 µM	9.5 µM	3.24 µM	11.8 µM	2.1 µM	2.99 µM	6.22 µM	5.55 µM	6.03 µM	5.31 µM	14.8 µM	18.9 µM	8.77 µM	–
c1ccc(-c2n(Cc3ccc4ccccc4c3)cc[n+]2Cc2ccc3ccccc3c2)cc1	–	2.81 µM	–	3.46 µM	3.4 µM	2.89 µM	–	–	–	–	1.45 µM	–	1.79 µM	1.49 µM	–	–	–	–	–	0.972 µM
N#Cc1ccccc1C#C/C=C\C#CC#C/C=C\C#Cc1ccccc1C#N	> 100 µM	> 100 µM	47.1 µM	> 100 µM	–	> 100 µM	> 100 µM	19.1 µM	16.5 µM	43.5 µM	22.6 µM	12.4 µM	12.7 µM	28.6 µM	16.5 µM	29.7 µM	> 100 µM	> 100 µM	4.11 µM	–
COc1ccccc1/C=C/C1=C(C)CCC(c2ccccc2OC)C1C (stereo not drawn)	> 100 µM	0.215 µM	22.5 µM	> 100 µM	–	> 100 µM	> 100 µM	1.37 µM	0.153 µM	19.3 µM	0.0833 µM	0.132 µM	0.129 µM	0.382 µM	0.119 µM	0.223 µM	0.627 µM	> 100 µM	0.0449 µM	–
CCN(CC)c1ccc2nc3c4ccccc4c(=O)cc-3n(-c3ccccc3)c2c1	15.1 µM	6.8 µM	6.61 µM	49.3 µM	–	5.92 µM	5.85 µM	1.2 µM	1.08 µM	3.6 µM	2.49 µM	1.49 µM	2.1 µM	1.91 µM	1.04 µM	2.04 µM	5.81 µM	2.58 µM	0.49 µM	–
O=c1ccc(=O)n(-c2ccccc2)[nH]1	> 100 µM	> 100 µM	> 100 µM	> 100 µM	–	> 100 µM	> 100 µM	–	–	> 100 µM	–	–	–	–	–	–	> 100 µM	> 100 µM	–	–
COc1cccc(C2=C(c3cn(C)c4cc(F)ccc34)C(=O)NC2=O)c1	> 25 µM	> 25 µM	> 25 µM	> 25 µM	> 25 µM	> 25 µM	–	> 8.37 µM	> 25 µM	> 25 µM	> 25 µM	> 17.2 µM	12.7 µM	> 25 µM	–	> 18.8 µM	> 25 µM	> 25 µM	> 17.4 µM	6.72 µM
NC1=NC(=O)/C(=C/c2ccc3ncccc3c2)S1	> 25 µM	> 25 µM	> 25 µM	> 25 µM	> 25 µM	> 25 µM	–	> 25 µM	> 25 µM	> 25 µM	> 25 µM	> 25 µM	> 25 µM	> 25 µM	–	> 25 µM	> 25 µM	> 25 µM	> 25 µM	7.11 µM
CCOC(=O)c1c(NC(=O)c2ccccc2)sc2c3c(ccc12)OCN(C)C3	3.13 µM	3.05 µM	3.4 µM	2.51 µM	–	4.79 µM	3.08 µM	1.75 µM	1.77 µM	3.82 µM	1.63 µM	1.68 µM	1.2 µM	2.16 µM	1.65 µM	1.9 µM	4.14 µM	3.87 µM	1.69 µM	–
